# US11021457B2, “Class of isoindolone-imide ring-1,3-dione-2-ene compounds, composition and use thereof” (WIGEN BIOMEDICINE TECHNOLOGY (SHANGHAI) CO., LTD., priority 2017, dated 2021)
# System: A549
# Test: Inhibition of tumor cell proliferation, CellTiter-Glo, A549
# Type: cell-based
# Conditions: compound concentration 50 μM, 72 hours
# Protocol: (§1) For various cell lines, the corresponding complete medium was used, and culture was carried out in an incubator at 37° C. with 5% CO2. The cells were counted, and inoculated into a 96-well plate at 2000-10000 cells/100 μl per well according to the cell volume and growth rate. The suspended cells were treated immediately, and the adherent cells were treated after adherence. The CellTiter-Glo method was used to detect the changes in cell viability 72 hours after the administration, and the cell survival rate at different concentrations was calculated by a formula: Survival rate (%)=(RLU of treatment well−RLU of blank well)/(RLU of control well−RLU of blank well)×100.
# (§2) Method for expressing the inhibitory activity of the compounds against the proliferation of tumor cells: Evaluation was made based on the cell survival rate at a compound concentration of 50 μM. 60≤survival rate (%)<90 is considered to have low inhibitory activity against the proliferation of tumor cells (+); 30<survival rate (%)≤60 is considered to have moderate inhibitory activity against the proliferation of tumor cells (++); and survival rate (%)≤30 is considered to have high inhibitory activity against the proliferation of tumor cells (+++).
row,SMILES,Inhibitory activity against proliferation (cell survival rate) A549
1,O=C1CCC(N2Cc3c(NC(=O)CN4CCN(CCNC=C5C(=O)CC(c6ccccc6)CC5=O)CC4)cccc3C2=O)C(=O)N1 (stereo not drawn) [Compound 54],+++ (survival rate (%)≤30)
2,O=C1CCC(N2C(=O)c3cccc(NC(=O)CN4CCN(CCNC=C5C(=O)CC(c6ccccc6)CC5=O)CC4)c3C2=O)C(=O)N1 (stereo not drawn) [Compound 55],+++ (survival rate (%)≤30)
3,O=C1CCC(N2Cc3c(NC(=O)CCC(=O)OCCN4CCN(CCNC=C5C(=O)CC(c6ccccc6)CC5=O)CC4)cccc3C2=O)C(=O)N1 (stereo not drawn) [Compound 56],+++ (survival rate (%)≤30)
4,O=C1CCC(N2C(=O)c3cccc(NC(=O)CCC(=O)OCCN4CCN(CCNC=C5C(=O)CC(c6ccccc6)CC5=O)CC4)c3C2=O)C(=O)N1 (stereo not drawn) [Compound 57],+ (60≤survival rate (%)<90)
5,O=C1CCC(N2Cc3c(NC(=O)C4CCN(CCNC=C5C(=O)CC(c6ccccc6)CC5=O)CC4)cccc3C2=O)C(=O)N1 (stereo not drawn) [Compound 61],+ (60≤survival rate (%)<90)
6,O=C1CCC(N2Cc3c(NC(=O)c4cnc(NC=C5C(=O)CC(c6ccccc6)CC5=O)s4)cccc3C2=O)C(=O)N1 (stereo not drawn) [Compound 62],++ (30<survival rate (%)≤60)
7,O=C1CCC(N2C(=O)c3cccc(NC(=O)c4cnc(NC=C5C(=O)CC(c6ccccc6)CC5=O)s4)c3C2=O)C(=O)N1 (stereo not drawn) [Compound 63],+ (60≤survival rate (%)<90)
8,O=C1CCC(N2Cc3c(NC(=O)[C@@H]4C[C@H](O)CN4CCNC=C4C(=O)CC(c5ccccc5)CC4=O)cccc3C2=O)C(=O)N1 (stereo partly drawn) [Compound 65],+++ (survival rate (%)≤30)

# System: SU-DHL6
# Test: Inhibition of tumor cell proliferation, CellTiter-Glo, SU-DHL6
# Type: cell-based
# Conditions: compound concentration 50 μM, 72 hours
# Protocol: as §1, §2
row,SMILES,Inhibitory activity against proliferation (cell survival rate) SU-DHL6
1,O=C1CCC(N2Cc3c(NC(=O)CN4CCN(CCNC=C5C(=O)CC(c6ccccc6)CC5=O)CC4)cccc3C2=O)C(=O)N1 (stereo not drawn) [Compound 54],+++ (survival rate (%)≤30)
2,O=C1CCC(N2C(=O)c3cccc(NC(=O)CN4CCN(CCNC=C5C(=O)CC(c6ccccc6)CC5=O)CC4)c3C2=O)C(=O)N1 (stereo not drawn) [Compound 55],+++ (survival rate (%)≤30)
3,O=C1CCC(N2Cc3c(NC(=O)CCC(=O)OCCN4CCN(CCNC=C5C(=O)CC(c6ccccc6)CC5=O)CC4)cccc3C2=O)C(=O)N1 (stereo not drawn) [Compound 56],+++ (survival rate (%)≤30)
4,O=C1CCC(N2C(=O)c3cccc(NC(=O)CCC(=O)OCCN4CCN(CCNC=C5C(=O)CC(c6ccccc6)CC5=O)CC4)c3C2=O)C(=O)N1 (stereo not drawn) [Compound 57],+++ (survival rate (%)≤30)
5,O=C1CCC(N2Cc3c(NC(=O)C4CCN(CCNC=C5C(=O)CC(c6ccccc6)CC5=O)CC4)cccc3C2=O)C(=O)N1 (stereo not drawn) [Compound 61],++ (30<survival rate (%)≤60)
6,O=C1CCC(N2Cc3c(NC(=O)c4cnc(NC=C5C(=O)CC(c6ccccc6)CC5=O)s4)cccc3C2=O)C(=O)N1 (stereo not drawn) [Compound 62],++ (30<survival rate (%)≤60)
7,O=C1CCC(N2C(=O)c3cccc(NC(=O)c4cnc(NC=C5C(=O)CC(c6ccccc6)CC5=O)s4)c3C2=O)C(=O)N1 (stereo not drawn) [Compound 63],++ (30<survival rate (%)≤60)
8,O=C1CCC(N2Cc3c(NC(=O)[C@@H]4C[C@H](O)CN4CCNC=C4C(=O)CC(c5ccccc5)CC4=O)cccc3C2=O)C(=O)N1 (stereo partly drawn) [Compound 65],+++ (survival rate (%)≤30)

# System: MDA-MB-453
# Test: Inhibition of tumor cell proliferation, CellTiter-Glo, MDA-MB-453
# Type: cell-based
# Conditions: compound concentration 50 μM, 72 hours
# Protocol: as §1, §2
row,SMILES,Inhibitory activity against proliferation (cell survival rate) MDA-MB-453
1,O=C1CCC(N2Cc3c(NC(=O)CN4CCN(CCNC=C5C(=O)CC(c6ccccc6)CC5=O)CC4)cccc3C2=O)C(=O)N1 (stereo not drawn) [Compound 54],++ (30<survival rate (%)≤60)
2,O=C1CCC(N2C(=O)c3cccc(NC(=O)CN4CCN(CCNC=C5C(=O)CC(c6ccccc6)CC5=O)CC4)c3C2=O)C(=O)N1 (stereo not drawn) [Compound 55],++ (30<survival rate (%)≤60)
3,O=C1CCC(N2Cc3c(NC(=O)CCC(=O)OCCN4CCN(CCNC=C5C(=O)CC(c6ccccc6)CC5=O)CC4)cccc3C2=O)C(=O)N1 (stereo not drawn) [Compound 56],+++ (survival rate (%)≤30)
4,O=C1CCC(N2C(=O)c3cccc(NC(=O)CCC(=O)OCCN4CCN(CCNC=C5C(=O)CC(c6ccccc6)CC5=O)CC4)c3C2=O)C(=O)N1 (stereo not drawn) [Compound 57],+ (60≤survival rate (%)<90)
5,O=C1CCC(N2Cc3c(NC(=O)C4CCN(CCNC=C5C(=O)CC(c6ccccc6)CC5=O)CC4)cccc3C2=O)C(=O)N1 (stereo not drawn) [Compound 61],+++ (survival rate (%)≤30)
6,O=C1CCC(N2Cc3c(NC(=O)c4cnc(NC=C5C(=O)CC(c6ccccc6)CC5=O)s4)cccc3C2=O)C(=O)N1 (stereo not drawn) [Compound 62],+++ (survival rate (%)≤30)
7,O=C1CCC(N2C(=O)c3cccc(NC(=O)c4cnc(NC=C5C(=O)CC(c6ccccc6)CC5=O)s4)c3C2=O)C(=O)N1 (stereo not drawn) [Compound 63],+ (60≤survival rate (%)<90)
8,O=C1CCC(N2Cc3c(NC(=O)[C@@H]4C[C@H](O)CN4CCNC=C4C(=O)CC(c5ccccc5)CC4=O)cccc3C2=O)C(=O)N1 (stereo partly drawn) [Compound 65],+++ (survival rate (%)≤30)

# System: RPMI-8226
# Test: Inhibition of tumor cell proliferation, CellTiter-Glo, RPMI-8226
# Type: cell-based
# Conditions: compound concentration 50 μM, 72 hours
# Protocol: as §1, §2
row,SMILES,Inhibitory activity against proliferation (cell survival rate) RPMI-8226
1,O=C1CCC(N2Cc3c(NC(=O)CN4CCN(CCNC=C5C(=O)CC(c6ccccc6)CC5=O)CC4)cccc3C2=O)C(=O)N1 (stereo not drawn) [Compound 54],++ (30<survival rate (%)≤60)
2,O=C1CCC(N2C(=O)c3cccc(NC(=O)CN4CCN(CCNC=C5C(=O)CC(c6ccccc6)CC5=O)CC4)c3C2=O)C(=O)N1 (stereo not drawn) [Compound 55],++ (30<survival rate (%)≤60)
3,O=C1CCC(N2Cc3c(NC(=O)CCC(=O)OCCN4CCN(CCNC=C5C(=O)CC(c6ccccc6)CC5=O)CC4)cccc3C2=O)C(=O)N1 (stereo not drawn) [Compound 56],+ (60≤survival rate (%)<90)
4,O=C1CCC(N2C(=O)c3cccc(NC(=O)CCC(=O)OCCN4CCN(CCNC=C5C(=O)CC(c6ccccc6)CC5=O)CC4)c3C2=O)C(=O)N1 (stereo not drawn) [Compound 57],+ (60≤survival rate (%)<90)
5,O=C1CCC(N2Cc3c(NC(=O)C4CCN(CCNC=C5C(=O)CC(c6ccccc6)CC5=O)CC4)cccc3C2=O)C(=O)N1 (stereo not drawn) [Compound 61],+ (60≤survival rate (%)<90)
6,O=C1CCC(N2Cc3c(NC(=O)c4cnc(NC=C5C(=O)CC(c6ccccc6)CC5=O)s4)cccc3C2=O)C(=O)N1 (stereo not drawn) [Compound 62],+++ (survival rate (%)≤30)
7,O=C1CCC(N2C(=O)c3cccc(NC(=O)c4cnc(NC=C5C(=O)CC(c6ccccc6)CC5=O)s4)c3C2=O)C(=O)N1 (stereo not drawn) [Compound 63],++ (30<survival rate (%)≤60)
8,O=C1CCC(N2Cc3c(NC(=O)[C@@H]4C[C@H](O)CN4CCNC=C4C(=O)CC(c5ccccc5)CC4=O)cccc3C2=O)C(=O)N1 (stereo partly drawn) [Compound 65],+++ (survival rate (%)≤30)

# System: K562
# Test: Inhibition of tumor cell proliferation, CellTiter-Glo, K562
# Type: cell-based
# Conditions: compound concentration 50 μM, 72 hours
# Protocol: as §1, §2
row,SMILES,Inhibitory activity against proliferation (cell survival rate) K562
1,O=C1CCC(N2Cc3c(NC(=O)CN4CCN(CCNC=C5C(=O)CC(c6ccccc6)CC5=O)CC4)cccc3C2=O)C(=O)N1 (stereo not drawn) [Compound 54],+++ (survival rate (%)≤30)
2,O=C1CCC(N2C(=O)c3cccc(NC(=O)CN4CCN(CCNC=C5C(=O)CC(c6ccccc6)CC5=O)CC4)c3C2=O)C(=O)N1 (stereo not drawn) [Compound 55],+ (60≤survival rate (%)<90)
3,O=C1CCC(N2Cc3c(NC(=O)CCC(=O)OCCN4CCN(CCNC=C5C(=O)CC(c6ccccc6)CC5=O)CC4)cccc3C2=O)C(=O)N1 (stereo not drawn) [Compound 56],+ (60≤survival rate (%)<90)
4,O=C1CCC(N2C(=O)c3cccc(NC(=O)CCC(=O)OCCN4CCN(CCNC=C5C(=O)CC(c6ccccc6)CC5=O)CC4)c3C2=O)C(=O)N1 (stereo not drawn) [Compound 57],+ (60≤survival rate (%)<90)
5,O=C1CCC(N2Cc3c(NC(=O)C4CCN(CCNC=C5C(=O)CC(c6ccccc6)CC5=O)CC4)cccc3C2=O)C(=O)N1 (stereo not drawn) [Compound 61],+ (60≤survival rate (%)<90)
6,O=C1CCC(N2Cc3c(NC(=O)c4cnc(NC=C5C(=O)CC(c6ccccc6)CC5=O)s4)cccc3C2=O)C(=O)N1 (stereo not drawn) [Compound 62],+ (60≤survival rate (%)<90)
7,O=C1CCC(N2C(=O)c3cccc(NC(=O)c4cnc(NC=C5C(=O)CC(c6ccccc6)CC5=O)s4)c3C2=O)C(=O)N1 (stereo not drawn) [Compound 63],+++ (survival rate (%)≤30)
8,O=C1CCC(N2Cc3c(NC(=O)[C@@H]4C[C@H](O)CN4CCNC=C4C(=O)CC(c5ccccc5)CC4=O)cccc3C2=O)C(=O)N1 (stereo partly drawn) [Compound 65],+++ (survival rate (%)≤30)

# System: BxPC-3
# Test: Inhibition of tumor cell proliferation, CellTiter-Glo, BxPC-3
# Type: cell-based
# Conditions: compound concentration 50 μM, 72 hours
# Protocol: as §1, §2
row,SMILES,Inhibitory activity against proliferation (cell survival rate) BxPC-3
1,O=C1CCC(N2Cc3c(NC(=O)CN4CCN(CCNC=C5C(=O)CC(c6ccccc6)CC5=O)CC4)cccc3C2=O)C(=O)N1 (stereo not drawn) [Compound 54],+ (60≤survival rate (%)<90)
2,O=C1CCC(N2C(=O)c3cccc(NC(=O)CN4CCN(CCNC=C5C(=O)CC(c6ccccc6)CC5=O)CC4)c3C2=O)C(=O)N1 (stereo not drawn) [Compound 55],+ (60≤survival rate (%)<90)
3,O=C1CCC(N2Cc3c(NC(=O)CCC(=O)OCCN4CCN(CCNC=C5C(=O)CC(c6ccccc6)CC5=O)CC4)cccc3C2=O)C(=O)N1 (stereo not drawn) [Compound 56],+ (60≤survival rate (%)<90)
4,O=C1CCC(N2C(=O)c3cccc(NC(=O)CCC(=O)OCCN4CCN(CCNC=C5C(=O)CC(c6ccccc6)CC5=O)CC4)c3C2=O)C(=O)N1 (stereo not drawn) [Compound 57],+ (60≤survival rate (%)<90)
5,O=C1CCC(N2Cc3c(NC(=O)C4CCN(CCNC=C5C(=O)CC(c6ccccc6)CC5=O)CC4)cccc3C2=O)C(=O)N1 (stereo not drawn) [Compound 61],+ (60≤survival rate (%)<90)
6,O=C1CCC(N2Cc3c(NC(=O)c4cnc(NC=C5C(=O)CC(c6ccccc6)CC5=O)s4)cccc3C2=O)C(=O)N1 (stereo not drawn) [Compound 62],++ (30<survival rate (%)≤60)
7,O=C1CCC(N2C(=O)c3cccc(NC(=O)c4cnc(NC=C5C(=O)CC(c6ccccc6)CC5=O)s4)c3C2=O)C(=O)N1 (stereo not drawn) [Compound 63],+ (60≤survival rate (%)<90)
8,O=C1CCC(N2Cc3c(NC(=O)[C@@H]4C[C@H](O)CN4CCNC=C4C(=O)CC(c5ccccc5)CC4=O)cccc3C2=O)C(=O)N1 (stereo partly drawn) [Compound 65],+ (60≤survival rate (%)<90)
